Measured values reported in ChEMBL document CHEMBL1932967, “Synthesis and biological evaluation of novel derivatives of gambogic acid as anti-hepatocellular carcinoma agents” (Bioorg Med Chem Lett, 2012).
pIC50: −log10 of the molar value. ≈ marks a conversion by molar mass, not a printed value. Calls of active or inactive are those of the source. No cut-off for these calls is given here.

What was measured:
Bel-7402 [1] = assay: Cytotoxicity against human Bel7402 cells after 72 hrs by MTT assay; type: functional, cell-based; conditions: Bel-7402, 72 h
[2] = Aqueous solubility of the compound; type: physicochemical; conditions: water (aqueous)
SMMC-7721 = assay: Cytotoxicity against human SMMC7721 cells after 72 hrs by MTT assay; type: functional, cell-based; conditions: SMMC-7721, 72 h
Bel-7402 [3] = assay: Ratio of Gambogic acid IC50 to compound IC50 for human Bel7402 cells; type: functional
Bel-7402 [4] = assay: Ratio of Taxol IC50 to compound IC50 for human Bel7402 cells; type: functional
[5] = Cytotoxicity against human Bel7404 cells after 72 hrs by MTT assay; type: functional, cell-based; conditions: BEL-7404, 72 h
[6] = Cytotoxicity against human QGY7701 cells after 72 hrs by MTT assay; type: functional, cell-based; conditions: QGY7701, 72 h
HepG2 = assay: cells; conditions: Homo sapiens, HepG2, 72 h
Description: Cytotoxicity against human HepG2 cells after 72 hrs by MTT assay

Bel-7402 [7] = assay: Induction of apoptosis in human Bel7402 cells assessed as viable cells at 0.4 uM after 48 hrs using V-FITC and propidium iodide staining by flow cytometry (reference value: 95.7 %); type: functional; conditions: Bel-7402, 48 h, read-out: Activity
Bel-7402 [8] = assay: Induction of apoptosis in human Bel7402 cells assessed as late apoptotic cells at 0.025 uM after 48 hrs using V-FITC and propidium iodide staining by flow cytometry (reference value: 2.2 %); type: functional
Bel-7402 [9] = assay: Cytotoxicity against human Bel7402 cells at 1.235 uM after 72 hrs by MTT assay; type: functional, cell-based
Bel-7402 [10] = assay: Induction of apoptosis in human Bel7402 cells assessed as pre-necrotic cells at 0.1 uM after 48 hrs using V-FITC and propidium iodide staining by flow cytometry (reference value: 0.7 %); type: functional
Bel-7402 [11] = assay: Induction of apoptosis in human Bel7402 cells assessed as viable cells at 0.025 uM after 48 hrs using V-FITC and propidium iodide staining by flow cytometry (reference value: 95.7 %); type: functional; conditions: Bel-7402, 48 h, read-out: Activity
Bel-7402 [12] = assay: Induction of apoptosis in human Bel7402 cells assessed as viable cells at 0.1 uM after 48 hrs using V-FITC and propidium iodide staining by flow cytometry (reference value: 95.7 %); type: functional; conditions: Bel-7402, 48 h, read-out: Activity
[13] = Cytotoxicity against human HL-7702 cells at 1.235 uM after 72 hrs by MTT assay; type: cell-based; conditions: l02, 72 h
Bel-7402 [14] = assay: Induction of apoptosis in human Bel7402 cells assessed as pre-necrotic cells at 0.025 uM after 48 hrs using V-FITC and propidium iodide staining by flow cytometry (reference value: 0.7 %); type: functional
Bel-7402 [15] = assay: Induction of apoptosis in human Bel7402 cells after 48 hrs using V-FITC and propidium iodide staining by flow cytometry; type: functional, cell-based
Bel-7402 [16] = assay: Induction of apoptosis in human Bel7402 cells assessed as late apoptotic cells at 0.4 uM after 48 hrs using V-FITC and propidium iodide staining by flow cytometry (reference value: 2.2 %); type: functional
Bel-7402 [17] = assay: Induction of apoptosis in human Bel7402 cells assessed as early apoptotic cells at 0.025 uM after 48 hrs using V-FITC and propidium iodide staining by flow cytometry (reference value: 1.4 %); type: functional
Bel-7402 [18] = assay: Induction of apoptosis in human Bel7402 cells assessed as early apoptotic cells at 0.1 uM after 48 hrs using V-FITC and propidium iodide staining by flow cytometry (reference value: 1.4 %); type: functional
Bel-7402 [19] = assay: Induction of apoptosis in human Bel7402 cells assessed as late apoptotic cells at 0.1 uM after 48 hrs using V-FITC and propidium iodide staining by flow cytometry (reference value: 2.2 %); type: functional
Bel-7402 [20] = assay: Induction of apoptosis in human Bel7402 cells assessed as pre-necrotic cells at 0.4 uM after 48 hrs using V-FITC and propidium iodide staining by flow cytometry (reference value: 0.7 %); type: functional
Bel-7402 [21] = assay: Induction of apoptosis in human Bel7402 cells assessed as early apoptotic cells at 0.4 uM after 48 hrs using V-FITC and propidium iodide staining by flow cytometry (reference value: 1.4 %); type: functional

| SMILES | pIC50 (Bel-7402 [1]) | solubility [2] [µg/mL] | pIC50 (SMMC-7721) | pIC50 [5] | pIC50 [6] | pIC50 (HepG2) | also measured |
| --- | --- | --- | --- | --- | --- | --- | --- |
| CC(C)=CCC[C@]1(C)C=Cc2c(O)c3c(c(CC=C(C)C)c2O1)O[C@]12C(=C[C@@H]4C[C@H]1C(C)(C)O[C@@]2(C/C=C(/C)C(=O)OCCCN1CCCCC1)C4=O)C3=O | 7.07 | 840 (≈ 1110 µM) | 5.97 | 5.85 | 6.37 | 6.82 | Ratio IC50 (Bel-7402 [3]): 8.7; Ratio IC50 (Bel-7402 [4]): 14.5 |
| CC(C)=CCC[C@]1(C)C=Cc2c(O)c3c(c(CC=C(C)C)c2O1)O[C@]12C(=C[C@@H]4C[C@H]1C(C)(C)O[C@@]2(C/C=C(/C)C(=O)OCCCN1CCNCC1)C4=O)C3=O | 4.74 | 1350 (≈ 1790 µM) | 4.58 | 4.56 | 5.36 | 4.72 |  |
| CC(C)=CCC[C@]1(C)C=Cc2c(O)c3c(c(CC=C(C)C)c2O1)O[C@]12C(=C[C@@H]4C[C@H]1C(C)(C)O[C@@]2(C/C=C(/C)C(=O)OCCCN1CCN(CCO)CC1)C4=O)C3=O | 5.51 | 1230 (≈ 1540 µM) | 5.18 | 5.09 | 6.02 | 5.49 |  |
| CC(C)=CCC[C@]1(C)C=Cc2c(O)c3c(c(CC=C(C)C)c2O1)O[C@]12C(=C[C@@H]4C[C@H]1C(C)(C)O[C@@]2(C/C=C(/C)C(=O)OCCCCN1CCOCC1)C4=O)C3=O | 5.67 | 1170 (≈ 1520 µM) | 5.81 | 5.68 | 6.28 | 5.82 |  |
| CC(C)=CCC[C@]1(C)C=Cc2c(O)c3c(c(CC=C(C)C)c2O1)O[C@]12C(=C[C@@H]4C[C@H]1C(C)(C)O[C@@]2(C/C=C(/C)C(=O)OCCN1CCCCC1)C4=O)C3=O | 5.76 | 870 (≈ 1180 µM) | 5.19 | 5.14 | 6.15 | 5.50 |  |
| CC(C)=CCC[C@]1(C)C=Cc2c(O)c3c(c(CC=C(C)C)c2O1)O[C@]12C(=C[C@@H]4C[C@H]1C(C)(C)O[C@@]2(C/C=C(/C)C(=O)OCCCCN1CCCCC1)C4=O)C3=O | 5.50 | 780 (≈ 1020 µM) | 5.34 | 5.19 | 5.36 | 5.25 |  |
| CC(C)=CCC[C@]1(C)C=Cc2c(O)c3c(c(CC=C(C)C)c2O1)O[C@]12C(=C[C@@H]4C[C@H]1C(C)(C)O[C@@]2(C/C=C(/C)C(=O)OCCN1CCN(CCO)CC1)C4=O)C3=O | 5.47 | 1260 (≈ 1610 µM) | 5.07 | 4.99 | 5.73 | 5.00 |  |
| CC(C)=CCC[C@]1(C)C=Cc2c(O)c3c(c(CC=C(C)C)c2O1)O[C@]12C(=C[C@@H]4C[C@H]1C(C)(C)O[C@@]2(C/C=C(/C)C(=O)OCCN1CCOCC1)C4=O)C3=O | 6.23 | 1230 (≈ 1660 µM) | 5.80 | 5.70 | 6.39 | 6.03 |  |
| CC(C)=CCC[C@]1(C)C=Cc2c(O)c3c(c(CC=C(C)C)c2O1)O[C@]12C(=C[C@@H]4C[C@H]1C(C)(C)O[C@@]2(C/C=C(/C)C(=O)OCCCCN1CCN(CCO)CC1)C4=O)C3=O | 5.96 | 1210 (≈ 1490 µM) | 5.45 | 5.02 | 5.59 | 5.94 |  |
| CC(C)=CCC[C@]1(C)C=Cc2c(O)c3c(c(CC=C(C)C)c2O1)O[C@]12C(=C[C@@H]4C[C@H]1C(C)(C)O[C@@]2(C/C=C(/C)C(=O)OCCCN1CCOCC1)C4=O)C3=O | 7.35 | 1210 (≈ 1600 µM) | 6.14 | 5.90 | 6.92 | 7.17 | viability at 0.4 µM (Bel-7402 [7]): 49.6%; Activity (Bel-7402 [8]): 7.8%; Activity (Bel-7402 [9]): Active; Activity (Bel-7402 [10]): 0.4%; viability at 0.025 µM (Bel-7402 [11]): 87.8%; viability at 0.1 µM (Bel-7402 [12]): 72.2%; Activity [13]: Toxic; Ratio IC50 (Bel-7402 [3]): 16.7; Activity (Bel-7402 [14]): 1.4%; Ratio IC50 (Bel-7402 [4]): 27.8; Activity (Bel-7402 [15]): Dose-dependent effect; Activity (Bel-7402 [16]): 5%; Activity (Bel-7402 [17]): 3%; Activity (Bel-7402 [18]): 22.8%; Activity (Bel-7402 [19]): 4.6%; Activity (Bel-7402 [20]): 0.5%; Activity (Bel-7402 [21]): 44.9% |
| CC(C)=CCC[C@]1(C)C=Cc2c(O)c3c(c(CC=C(C)C)c2O1)O[C@]12C(=C[C@@H]4C[C@H]1C(C)(C)O[C@@]2(C/C=C(/C)C(=O)OCCCCN1CCNCC1)C4=O)C3=O | 4.78 | 1320 (≈ 1720 µM) | 4.63 | 4.54 | 5.39 | 4.62 |  |
| CC(C)=CCC[C@]1(C)C=Cc2c(O)c3c(c(CC=C(C)C)c2O1)O[C@]12C(=C[C@@H]4C[C@H]1C(C)(C)O[C@@]2(C/C=C(/C)C(=O)O)C4=O)C3=O [GAMBOGIC ACID] | 6.12 | 13 (≈ 20.7 µM) | 5.95 | 5.33 | 6.62 | 5.93 |  |
| CC(=O)O[C@H]1C(=O)[C@@]2(C)[C@H]([C@H](OC(=O)c3ccccc3)[C@]3(O)C[C@H](OC(=O)[C@H](O)[C@@H](NC(=O)c4ccccc4)c4ccccc4)C(C)=C1C3(C)C)[C@]1(OC(C)=O)CO[C@@H]1C[C@@H]2O [PACLITAXEL] | 5.90 |  | 6.06 | 6.09 | 7.40 | 7.30 |  |
| CC(C)=CCC[C@]1(C)C=Cc2c(O)c3c(c(CC=C(C)C)c2O1)O[C@]12C(=C[C@@H]4C[C@H]1C(C)(C)O[C@@]2(C/C=C(/C)C(=O)OCCN1CCNCC1)C4=O)C3=O | 4.71 | 1360 (≈ 1840 µM) | 4.55 | 4.51 | 5.27 | 4.70 |  |
